The source made the active and inactive calls. The rule behind the calls is not given here.
Columns and labels:
[1] = Ratio of compound ED90 to […] ED90 for herbicidal activity against Matricaria inodora
[2] = tested on: Hordeum vulgare; experiment: Phytotoxicity in Hordeum vulgare (barley) assessed as injury at 300 g/ha pre emergence application measured after 21 days after treatment; format: organism-based; settings: in vivo, other, 504 h
[3] = tested on: Alopecurus myosuroides; experiment: Herbicidal activity against Alopecurus myosuroides assessed as killing at 0.3 g/ha post emergence application measured after 21 days after treatment; format: functional, organism-based
[4] = tested on: Viola arvensis; experiment: Herbicidal activity against Viola arvensis assessed as killing at 10 g/ha pre emergence application measured after 21 days after treatment; format: functional
[5] = target: T1, Protoporphyrinogen oxidase 2 (Spinacia oleracea) (UniProt Q94IG7); experiment: Inhibition of Stellaria media protoporphyinogen oxidase assessed as herbicidal activity at 0.3 g/ha measured after 2 days after treatment under greenhouse by time-course analysis; design: scale not given: the % may be the effect or the level left
T1 sequence (whole entry): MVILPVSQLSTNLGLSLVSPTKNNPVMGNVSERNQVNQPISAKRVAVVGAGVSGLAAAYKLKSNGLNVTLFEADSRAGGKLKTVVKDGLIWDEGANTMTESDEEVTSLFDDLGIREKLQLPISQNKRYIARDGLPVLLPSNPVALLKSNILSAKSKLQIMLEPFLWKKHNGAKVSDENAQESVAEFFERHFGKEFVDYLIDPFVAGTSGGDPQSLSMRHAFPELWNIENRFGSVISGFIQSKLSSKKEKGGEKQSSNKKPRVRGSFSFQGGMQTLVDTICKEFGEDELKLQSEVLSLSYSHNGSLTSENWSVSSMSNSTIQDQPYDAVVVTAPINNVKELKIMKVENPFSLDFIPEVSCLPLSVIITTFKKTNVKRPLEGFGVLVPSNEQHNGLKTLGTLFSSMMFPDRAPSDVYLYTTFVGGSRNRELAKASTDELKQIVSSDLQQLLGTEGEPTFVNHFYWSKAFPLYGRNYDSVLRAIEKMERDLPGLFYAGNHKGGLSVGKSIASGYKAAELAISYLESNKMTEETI

[6] = tested on: Galium aparine; experiment: Herbicidal activity against Galium aparine assessed as killing at 100 g/ha post emergence application measured after 21 days after treatment; format: functional
[7] = tested on: Galium aparine; experiment: Herbicidal activity against Galium aparine assessed as killing at 10 g/ha post emergence application measured after 21 days after treatment; format: functional
[8] = tested on: Viola arvensis; experiment: Herbicidal activity against Viola arvensis assessed as killing at 3 g/ha post emergence application measured after 21 days after treatment; format: functional
[9] = tested on: Avena fatua; experiment: Herbicidal activity against Avena fatua assessed as killing at 100 g/ha post emergence application measured after 21 days after treatment; format: functional
[10] = tested on: Triticum aestivum; experiment: Phytotoxicity in Triticum aestivum (wheat) assessed as injury at 10 g/ha post emergence application measured after 21 days after treatment; format: organism-based; settings: in vivo, other, 504 h
[11] = tested on: Hordeum vulgare; experiment: Phytotoxicity in Hordeum vulgare (barley) assessed as injury at 30 g/ha pre emergence application measured after 21 days after treatment; format: organism-based; settings: in vivo, other, 504 h
[12] = tested on: Hordeum vulgare; experiment: Phytotoxicity in Hordeum vulgare (barley) assessed as injury at 3 g/ha post emergence application measured after 21 days after treatment; format: organism-based; settings: in vivo, other, 504 h
[13] = tested on: Triticum aestivum; experiment: Phytotoxicity in Triticum aestivum (wheat) assessed as injury at 3 g/ha post emergence application measured after 21 days after treatment; format: organism-based; settings: in vivo, other, 504 h
[14] = tested on: Triticum aestivum; experiment: Phytotoxicity in Triticum aestivum (wheat) assessed as injury at 10 g/ha pre emergence application measured after 21 days after treatment; format: organism-based; settings: in vivo, other, 504 h
[15] = tested on: Galium aparine; experiment: Herbicidal activity against Galium aparine assessed as killing at 1 g/ha post emergence application measured after 21 days after treatment; format: functional
[16] = tested on: Galium aparine; experiment: Herbicidal activity against Galium aparine assessed as killing at 300 g/ha post emergence application measured after 21 days after treatment; format: functional
[17] = tested on: Veronica hederifolia; experiment: Herbicidal activity against Veronica hederaefolia assessed as killing at 10 g/ha post emergence application measured after 21 days after treatment; format: functional
[18] = tested on: Veronica hederifolia; experiment: Herbicidal activity against Veronica hederaefolia assessed as killing at 100 g/ha post emergence application measured after 21 days after treatment; format: functional
[19] = tested on: Veronica hederifolia; experiment: Herbicidal activity against Veronica hederaefolia assessed as killing at 0.3 g/ha post emergence application measured after 21 days after treatment; format: functional
[20] = tested on: Galium aparine; experiment: Herbicidal activity against Galium aparine assessed as killing at 0.3 g/ha post emergence application measured after 21 days after treatment; format: functional
[21] = tested on: Stellaria media; experiment: Herbicidal activity against Stellaria media assessed as killing at 10 g/ha pre emergence application measured after 21 days after treatment; format: functional
[22] = tested on: Viola arvensis; experiment: Ratio of compound ED90 to ioxynil ED90 for herbicidal activity against Viola arvensis
[23] = tested on: Viola arvensis; experiment: Herbicidal activity against Viola arvensis assessed as killing at 1 g/ha post emergence application measured after 21 days after treatment; format: functional
[24] = tested on: Galium aparine; experiment: Herbicidal activity against Galium aparine assessed as killing at 10 g/ha pre emergence application measured after 21 days after treatment; format: functional
[25] = tested on: Viola arvensis; experiment: Herbicidal activity against Viola arvensis assessed as killing at 30 g/ha post emergence application measured after 21 days after treatment; format: functional
[26] = tested on: Viola arvensis; experiment: Ratio of compound ED90 to necoprop-p ED90 for herbicidal activity against Viola arvensis
[27] = tested on: Stellaria media; experiment: Herbicidal activity against Stellaria media assessed as killing at 3 g/ha post emergence application measured after 21 days after treatment; format: functional
[28] = tested on: Viola arvensis; experiment: Herbicidal activity against Viola arvensis assessed as killing at 100 g/ha post emergence application measured after 21 days after treatment; format: functional
[29] = tested on: Avena fatua; experiment: Herbicidal activity against Avena fatua assessed as killing at 1 g/ha post emergence application measured after 21 days after treatment; format: functional
[30] = tested on: Stellaria media; experiment: Herbicidal activity against Stellaria media assessed as killing at 100 g/ha post emergence application measured after 21 days after treatment; format: functional
[31] = target: T2, Protoporphyrinogen oxidase, chloroplastic (Nicotiana tabacum) (UniProt O24163); experiment: Inhibition of Galium aparine protoporphyrinogen oxidase by post-emergence herbicidal activity assay
T2 sequence (whole entry): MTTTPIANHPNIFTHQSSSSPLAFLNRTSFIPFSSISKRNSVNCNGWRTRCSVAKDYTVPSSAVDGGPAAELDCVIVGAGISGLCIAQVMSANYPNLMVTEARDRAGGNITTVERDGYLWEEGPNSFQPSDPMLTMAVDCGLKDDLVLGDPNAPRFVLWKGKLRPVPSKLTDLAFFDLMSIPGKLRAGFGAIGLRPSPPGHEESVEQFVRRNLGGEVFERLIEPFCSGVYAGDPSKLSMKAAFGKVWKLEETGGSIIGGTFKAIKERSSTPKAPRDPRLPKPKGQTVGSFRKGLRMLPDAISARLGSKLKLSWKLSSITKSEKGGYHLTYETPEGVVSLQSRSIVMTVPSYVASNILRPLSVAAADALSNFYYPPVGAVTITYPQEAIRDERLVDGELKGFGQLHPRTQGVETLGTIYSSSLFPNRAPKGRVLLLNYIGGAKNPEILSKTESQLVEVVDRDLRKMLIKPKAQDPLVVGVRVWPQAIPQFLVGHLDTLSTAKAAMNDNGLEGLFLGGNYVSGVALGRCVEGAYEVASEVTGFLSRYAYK

[32] = tested on: Veronica hederifolia; experiment: Herbicidal activity against Veronica hederaefolia assessed as killing at 300 g/ha post emergence application measured after 21 days after treatment; format: functional
[33] = target: T1, Protoporphyrinogen oxidase 2 (Spinacia oleracea); experiment: Inhibition of Stellaria media protoporphyinogen oxidase assessed as herbicidal activity at 0.3 g/ha measured after 21 days after treatment under greenhouse by time-course analysis; design: scale not given: the % may be the effect or the level left

## CCOC(=O)COc1cc(-c2nn(C)c(OC(F)F)c2Cl)c(F)cc1Cl [PYRAFLUFEN-ETHYL]
[1]
  Ratio: 3330
[2]
  Activity: 21%
[3]
  Activity: inactive
[4]
  Activity: 11%
[5]
  Activity: 90%
[6]
  Activity: 40%
[7]
  Activity: 100%
[8]
  Activity: 80%
[9]
  Activity: 1%
[10]
  Activity: 11%
[11]
  Activity: Non-toxic
[12]
  Activity: 1%
[13]
  Activity: 1%
[14]
  Activity: Non-toxic
[15]
  Activity: 80%
[16]
  Activity: 50%
[17]
  Activity: 100%
[18]
  Activity: 21%
[19]
  Activity: 40%
[20]
  Activity: 60%
[21]
  Activity: 21%
[22]
  Ratio: 10
[23]
  Activity: 80%
[24]
  Activity: 11%
[25]
  Activity: 40%
[26]
  Ratio: 200
[27]
  Activity: 100%
[28]
  Activity: 40%
[29]
  Activity: 1%
[30]
  Activity: 90%
[31]
  ED90: 1.5 gAi/ha
[32]
  Activity: 80%
[33]
  Activity: > 90%
